Measurements: US20250135006A1, “AMPHIPHILIC TLR7/8 ADJUVANTS AND USES THEREOF” (Pfizer Inc., priority 2023, published 2025)

Legend:
[1] = target: T1, human toll like receptor 8 (hTLR8) (Homo sapiens, UniProt Q9NR97); assay: hTLR8 in-vitro functional assay (HEK-Blue hTLR8 SEAP reporter); type: cell-based; conditions: HEK-Blue hTLR8 cells, overnight incubation
T1 construct: host or cells: HEK293 (HEK-Blue hTLR8)
T1 sequence (Q9NR97 27-1041): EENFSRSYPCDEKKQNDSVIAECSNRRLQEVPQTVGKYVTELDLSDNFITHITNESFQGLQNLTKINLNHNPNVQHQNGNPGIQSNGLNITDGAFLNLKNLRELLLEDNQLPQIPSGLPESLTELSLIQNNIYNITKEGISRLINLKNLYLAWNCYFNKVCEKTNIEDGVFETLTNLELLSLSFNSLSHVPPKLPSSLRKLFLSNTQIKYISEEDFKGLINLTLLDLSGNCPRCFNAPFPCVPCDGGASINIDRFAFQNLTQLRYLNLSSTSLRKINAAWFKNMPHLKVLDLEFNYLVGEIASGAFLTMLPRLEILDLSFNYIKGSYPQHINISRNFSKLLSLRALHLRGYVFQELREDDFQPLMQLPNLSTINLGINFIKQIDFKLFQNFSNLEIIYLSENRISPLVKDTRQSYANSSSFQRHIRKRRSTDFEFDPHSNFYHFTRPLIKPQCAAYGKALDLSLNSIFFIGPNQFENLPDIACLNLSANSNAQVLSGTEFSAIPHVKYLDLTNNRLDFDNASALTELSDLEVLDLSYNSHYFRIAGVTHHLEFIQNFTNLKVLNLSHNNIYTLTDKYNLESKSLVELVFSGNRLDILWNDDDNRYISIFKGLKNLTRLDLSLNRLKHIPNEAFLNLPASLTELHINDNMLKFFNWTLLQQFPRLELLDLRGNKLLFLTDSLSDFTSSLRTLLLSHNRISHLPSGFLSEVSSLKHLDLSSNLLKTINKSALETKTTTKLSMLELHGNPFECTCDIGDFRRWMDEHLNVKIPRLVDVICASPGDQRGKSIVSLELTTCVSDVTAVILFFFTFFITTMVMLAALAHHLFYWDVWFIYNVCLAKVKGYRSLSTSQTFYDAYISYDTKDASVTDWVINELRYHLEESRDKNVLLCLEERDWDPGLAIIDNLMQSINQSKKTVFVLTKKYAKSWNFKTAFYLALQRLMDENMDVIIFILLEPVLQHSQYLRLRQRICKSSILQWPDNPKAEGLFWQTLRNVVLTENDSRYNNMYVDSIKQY
Description: (§1) To determine the ability of test compounds to activate the human toll like receptor 7 (hTLR7) or human toll like receptor 8 (hTLR8), cell-based reporter systems were utilized. HEK293 cells stably overexpressing either hTLR7 or hTLR8 along with a reporter gene containing an optimized secreted embryonic alkaline phosphatase gene (SEAP), under the control of the IFN-b minimal promoter fused to five NF-kB and AP-1-binding sites, were obtained from Invivogen (HEK-Blue™ hTLR7, cat #Hkb-htlr7; HEK-Blue™ hTLR8, cat #Hkb-htlr8). Stimulation of hTLR7 or hTLR8 in these cells activates NF-kB and AP-1 and induces the production of SEAP which can be quantified using an alkaline phosphatase detection reagent.
(§2) On day one of the assay, compounds were prepared using 11-point half-log serial dilutions from a 10 mM DMSO stock solution and 50 nL was spotted into 384-well plates (PerkinElmer, cat #6007480). Positive and negative controls were also spotted within the assay plate and were used to determine percent effect during the analysis process. After resuspension in DMEM assay media containing FBS heat inactivated (10%), Glutamax (2 mM) and Penicillin/Streptomycin, 10,000 cells/20 ul/well were added to previously prepared compound plates. Plates were incubated overnight (16-20 hrs) at 37° C. in a 5% CO2 environment. Prewetted Microclime lids (Labcyte, LLS-0310) were used to prevent evaporation. On day two of the assay, QUANTI-Blue™ detection reagent was prepared by reconstituting QUANTI-Blue™ powder (InvivoGen, Rep-qb1) with 100 ml of sterile water and allowed to equilibrate to 37° C. for 15 minutes. 20 ul of QUANTI-Blue™ detection reagent was added to each well and plates were incubated at room temperature for 180 min. At the end of the incubation, plates were read on an Envision (Perkin Elmer) plate reader capturing absorbance at 650 nm.
(§3) Using Positive (tool compound) and Negative (DMSO) controls, the percent (%) effect was calculated for each sample using the following equation: […]
(§4) The % effect at each concentration of compound was calculated utilizing the ABase software suite (IBDS) and was relative to the amount of SEAP produced in the positive and negative control wells contained within each assay plate. The concentrations and % effect values for test compounds were fit using a 4-parameter logistic model in ABase and the concentration of compound that produced 50% response (EC50) was calculated.

[2] = target: T2, human toll like receptor 7 (hTLR7) (Homo sapiens, UniProt Q9NYK1); assay: hTLR7 in-vitro functional assay (HEK-Blue hTLR7 SEAP reporter); type: cell-based; conditions: HEK-Blue hTLR7 cells, overnight incubation
T2 construct: host or cells: HEK293 (HEK-Blue hTLR7)
T2 sequence (Q9NYK1 27-1049): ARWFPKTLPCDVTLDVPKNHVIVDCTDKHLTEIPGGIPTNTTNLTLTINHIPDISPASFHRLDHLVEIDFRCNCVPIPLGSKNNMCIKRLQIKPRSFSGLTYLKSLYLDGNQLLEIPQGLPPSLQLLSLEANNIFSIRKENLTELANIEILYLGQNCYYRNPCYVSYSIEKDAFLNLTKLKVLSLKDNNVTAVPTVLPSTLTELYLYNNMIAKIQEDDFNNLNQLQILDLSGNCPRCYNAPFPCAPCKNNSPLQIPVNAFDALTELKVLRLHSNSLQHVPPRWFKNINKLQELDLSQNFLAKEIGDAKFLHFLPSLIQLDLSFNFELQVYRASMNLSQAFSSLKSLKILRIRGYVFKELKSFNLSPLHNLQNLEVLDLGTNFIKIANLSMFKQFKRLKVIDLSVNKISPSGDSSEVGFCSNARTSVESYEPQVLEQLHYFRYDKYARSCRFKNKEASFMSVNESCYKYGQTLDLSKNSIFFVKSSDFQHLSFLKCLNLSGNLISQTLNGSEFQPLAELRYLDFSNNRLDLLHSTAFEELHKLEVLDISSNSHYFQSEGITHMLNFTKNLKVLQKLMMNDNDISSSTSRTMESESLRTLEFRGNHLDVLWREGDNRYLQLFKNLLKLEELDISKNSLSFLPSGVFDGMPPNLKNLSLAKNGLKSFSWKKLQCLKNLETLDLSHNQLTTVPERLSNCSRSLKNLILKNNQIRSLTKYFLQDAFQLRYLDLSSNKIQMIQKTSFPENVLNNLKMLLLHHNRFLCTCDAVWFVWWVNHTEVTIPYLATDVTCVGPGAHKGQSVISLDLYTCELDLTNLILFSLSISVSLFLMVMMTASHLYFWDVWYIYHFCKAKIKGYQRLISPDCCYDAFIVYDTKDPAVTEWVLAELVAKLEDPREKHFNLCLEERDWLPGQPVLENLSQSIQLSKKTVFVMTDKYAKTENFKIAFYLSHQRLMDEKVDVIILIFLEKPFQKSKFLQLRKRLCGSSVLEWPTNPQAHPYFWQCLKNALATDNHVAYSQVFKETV
Description: as §1, §2, §3, §4

`CCCCc1nc2c(N)nc3cc(CCCN4CCN(C(=O)CCOCCOCCOCCOCCOCCOCCOCCOCCOCCOCCOCCOCCOCCOCCOCCOCCOCCOCCOCCOCCOCCOCCOCCOCCNC(=O)CCOCCOCCOCCOCCOCCOCCOCCOCCOCCOCCOCCOCCOCCOCCOCCOCCOCCOCCOCCOCCOCCOCCOCCOCCNC(=O)O[C@H]5CC[C@@]6(C)C(=CC[C@H]7[C@@H]8CC[C@H]([C@H](C)CCCC(C)C)[C@@]8(C)CC[C@@H]76)C5)CC4)ccc3c2n1CC(C)(CO)CO` [Compound 8, (3beta,20R)-cholest-5-en-3-yl {151-[4-(3-{4-amino-2-butyl-1-[3-hydroxy-2-(hydroxymethyl)-2-methylpropyl]-1H-imidazo[4,5-c]quinolin-7-yl}propyl)piperazin-1-yl]-75,151-dioxo-3,6,9,12,15,18,21,24,27,30,33,36,39,42,45,48,51,54,57,60,63,66,69,72,79,82,85,88,91,94,97,100,103,106,109,112,115,118,121,124,127,130,133,136,139,142,145,148-octatetracontaoxa-76-azahenpentacontahect-1-yl}carbamate] gave an EC50 [1] of 731 nM and an EC50 [2] of 150 nM.
In the case of `CCCCc1nc2c(N)nc3cc(CCCN4CCN(C(=O)CCOCCOCCOCCOCCOCCOCCOCCOCCOCCOCCOCCOCCOCCOCCOCCOCCOCCOCCOCCOCCOCCOCCOCCOCCNC(=O)O[C@H]5CC[C@@]6(C)C(=CC[C@H]7[C@@H]8CC[C@H]([C@H](C)CCCC(C)C)[C@@]8(C)CC[C@@H]76)C5)CC4)ccc3c2n1CC(C)(CO)CO` [Compound 9, (3beta)-cholest-5-en-3-yl {75-[4-(3-{4-amino-2-butyl-1-[3-hydroxy-2-(hydroxymethyl)-2-methylpropyl]-1H-imidazo[4,5-c]quinolin-7-yl}propyl)piperazin-1-yl]-75-oxo-3,6,9,12,15,18,21,24,27,30,33,36,39,42,45,48,51,54,57,60,63,66,69,72-tetracosaoxapentaheptacont-1-yl}carbamate], the EC50 [1] is reported as 16000 nM and the EC50 [2] is reported as 181 nM.
`CCCCc1nc2c(N)nc3cc(CCCN4CCN(CCCOCCNC(=O)O[C@H]5CC[C@@]6(C)C(=CC[C@H]7[C@@H]8CC[C@H]([C@H](C)CCCC(C)C)[C@@]8(C)CC[C@@H]76)C5)CC4)ccc3c2n1CC(C)(CO)CO` [Compound 10, (3beta,20R)-cholest-5-en-3-yl (2-{3-[4-(3-{4-amino-2-butyl-1-[3-hydroxy-2-(hydroxymethyl)-2-methylpropyl]-1H-imidazo[4,5-c]quinolin-7-yl}propyl)piperazin-1-yl]propoxy}ethyl)carbamate] was tested, and the EC50 [1] was 9910 nM and the EC50 [2] was 186 nM.
With `CCCCc1nc2c(N)nc3cc(CCCN4CCN(C(=O)CCOCCOCCOCCOCCNC(=O)O[C@H]5CC[C@@]6(C)C(=CC[C@H]7[C@@H]8CC[C@H]([C@H](C)CCCC(C)C)[C@@]8(C)CC[C@@H]76)C5)CC4)ccc3c2n1CC(C)(CO)CO` [Compound 12, (3beta,20R)-cholest-5-en-3-yl {15-[4-(3-{4-amino-2-butyl-1-[3-hydroxy-2-(hydroxymethyl)-2-methylpropyl]-1H-imidazo[4,5-c]quinolin-7-yl}propyl)piperazin-1-yl]-15-oxo-3,6,9,12-tetraoxapentadec-1-yl}carbamate] the EC50 [1] was 19600 nM and the EC50 [2] was 210 nM.
For `CCOCc1nc2c(N)nc3cc(CCCN4CCN(C(=O)CCOCCOCCOCCOCCOCCOCCOCCOCCOCCOCCOCCOCCNC(=O)CCOCCOCCOCCOCCNC(=O)O[C@H]5CC[C@@]6(C)C(=CC[C@H]7[C@@H]8CC[C@H]([C@H](C)CCCC(C)C)[C@@]8(C)CC[C@@H]76)C5)CC4)ccc3c2n1CC(C)(CO)CO` [Compound 13, (3beta,20R)-cholest-5-en-3-yl {55-[4-(3-{4-amino-2-(ethoxymethyl)-1-[3-hydroxy-2-(hydroxymethyl)-2-methylpropyl]-1H-imidazo[4,5-c]quinolin-7-yl}propyl)piperazin-1-yl]-15,55-dioxo-3,6,9,12,19,22,25,28,31,34,37,40,43,46,49,52-hexadecaoxa-16-azapentapentacont-1-yl}carbamate], the EC50 [1] was 3330 nM and the EC50 [2] was 223 nM.
With `CCCCc1nc2c(N)nc3cc(CCCN4CCN(CCCOCCOCCOCCOCCOCCOCCOCCOCCOCCOCCOCCOCCOCCOCCOCCOCCNC(=O)O[C@H]5CC[C@@]6(C)C(=CC[C@H]7[C@@H]8CC[C@H]([C@H](C)CCCC(C)C)[C@@]8(C)CC[C@@H]76)C5)CC4)ccc3c2n1CC(C)(CO)CO` [Compound 14, (3beta,20R)-cholest-5-en-3-yl {51-[4-(3-{4-amino-2-butyl-1-[3-hydroxy-2-(hydroxymethyl)-2-methylpropyl]-1H-imidazo[4,5-c]quinolin-7-yl}propyl)piperazin-1-yl]-3,6,9,12,15,18,21,24,27,30,33,36,39,42,45,48-hexadecaoxahenpentacont-1-yl}carbamate] the EC50 [1] was 22600 nM and the EC50 [2] was 236 nM.
In the case of `CCCCc1nc2c(N)nc3cc(CCCN4CCN(CCCOCCOCCOCCOCCNC(=O)CCOCCOCCOCCOCCNC(=O)O[C@H]5CC[C@@]6(C)C(=CC[C@H]7[C@@H]8CC[C@H]([C@H](C)CCCC(C)C)[C@@]8(C)CC[C@@H]76)C5)CC4)ccc3c2n1CC(C)(CO)CO` [Compound 15, (20R)-cholest-5-en-3beta-yl {31-[4-(3-{4-amino-2-butyl-1-[3-hydroxy-2-(hydroxymethyl)-2-methylpropyl]-1H-imidazo[4,5-c]quinolin-7-yl}propyl)piperazin-1-yl]-15-oxo-3,6,9,12,19,22,25,28-octaoxa-16-azahentriacontan-1-yl}carbamate], the EC50 [1] is reported as 17600 nM and the EC50 [2] is reported as 276 nM.
